# Assay results from patent publication EP0491041A1, “ANTIVIRAL DRUG” (NIPPON SHINYAKU COMPANY, LIMITED, priority 1989, dated 1991).
# Test system: virus
# Test: Antiviral action test: screening by inhibition of cell degeneration effect (CPE) in virus-infected HeLa cells
# Format: cell-based
# Details: amount of added drug whereby the CPE became 50%, M.O.I = 0.002, culture for three days
# Protocol: HeLa cells were subjected to subcultured by monolayer culture (Eagle's MEM-10% CS) and infected as M.O.I. (multiplicity of infection) = 0.01.
# On the first day, HeLa cells were spread in a 75 cm³ flask and cultured on a one-day growth medium (Eagle's MEM-10% CS). On the second day, old medium was removed after confirming the formation of cell sheet, then M.O.I was made 0.01 PFU/cell and 0.5 ml of virus solution was added. The original virus solution was diluted with PBS-3% FCS solution. Operation of the virus inoculation was conducted by tilting for 1 hour at room temperature. After virus was inoculated on the cells, the virus-inoculated solution was removed, washed twice with 10 ml PBS and the residual virus solution was removed. Then 15 ml of maintenance medium (Eagle's MEM-1% CS) was added and cultured at 37°C for 2 days. The cells were observed from time to time and the culture was continued until cell fusion and cell rounding were confirmed. After the culture, medium was recovered which was used as a virus solution and was stored at -20°C until actual use.
# The 78 cm³ flask containing HeLa cells which were subjected to a monolayer maintenance subculture was taken out, the old medium was discarded, 2-3 ml of 0.25% trypsine (Difco = 1:250)-0.02% EDTA/PBS(-) solution was added, tilted for a few seconds, the trypsine solution was removed and warmed at 37°C for 5 minutes. Then fresh medium was added, pipetted with a Komagome pipette and the cells were homogeneously dispersed.
# Cells were counted using a cytometer, then fresh medium was added, diluted to make the cell concentration 5 x 10⁵ cells/ml, 2 ml of that was added to a laboratory dish of 35 mm diameter and cultured in a CO₂-incubator at 37°C for one day to prepare cell sheet.
# The virus solution was diluted by a diluting solution to make diluted solutions of ten-times difference or step. The laboratory dish wherein HeLa cells were cultured on the previous day was taken out from the incubator, old medium was discarded and the cells were washed with each 2 ml of PBS twice. Properly diluted virus solution (0.2 ml) was added to each laboratory dish, subjected to a tilting at room temperature for 60 minutes immediately and virus was inoculated. Then the virus solution was removed, each 2 ml of 0.5% methylcellulose/Eagle's MEM-1% CS was added and cultured in a CO₂ incubator for 4 days.
# The cultured laboratory dish was taken out from the CO₂-incubator and methylcellulose medium was removed. Then cells were washed with 2 ml of PDS, 2 ml of methanol was added, allowed to stand for 10 minutes and cells were immobilized and, at the same time, virus was sterilized. Hematoxylin dyeing solution (2 ml) was added to the laboratory dish which was immobilized with methanol, allowed to stand for about 10 minutes, washed with water and air-dried at room temperature. Since the cells destructed with virus were not dyed, plaque area was noted as a void and the plaque numbers were counted whereby virus value (PFU/ml) (Plaque forming units/ml) was measured.
# HeLa cells during the subculture were dispersed with trypsine liquid-EDTA solution, 5 x 10⁵ cells/pore were embedded on a plate having 24 pores and cultured overnight at 37°C in a CO₂-incubator to prepare cell sheet.
# As mentioned above, old medium was discarded, the cells were washed with PBS, the virus solution was diluted to make M.O.I = 0.002, 0.1 ml of it was added to each pore, subjected to a tilting at room temperature for 60 minutes and virus was inoculated to the cell.
# Virus solution was removed from the cells after inoculation of virus, the cells were washed with 2 ml of PBS, each 1 ml of maintenance medium was added to each pore, then each 10 µl of the drug was added and the cells were cultured in a CO₂-incubator. Culture was conducted for three days.
# The cells on the plate were observed under an invert microscope. Cell degeneration effect (CPE) was observed as cell fusion and making the cells round. […]
row,Compound,EC50 (50% CPE inhibition)
1,"CC(=CCCN1C[C@H](O)[C@@H](O)[C@H](O)[C@H]1CO)c1cccc(C(F)(F)F)c1 [Compound No. 113, N-[4-(3-Trifluoromethylphenyl)-3-pentenyl]moranoline]",30 µg/mL
2,"CCOc1ccc(C(C)=CCCN2C[C@H](O)[C@@H](O)[C@H](O)[C@H]2CO)cc1 [Compound No. 118, N-[4-(4-Ethoxyphenyl)-3-pentenyl]moranoline]",30 µg/mL
3,"CC(=CCN1C[C@H](O)[C@@H](O)[C@H](O)[C@H]1CO)c1ccc(Cl)c(Cl)c1 [Compound No. 102, N-(gamma-Methyl-3,4-dichlorocinnamyl)moranoline]",10 µg/mL
4,"OC[C@@H]1[C@@H](O)[C@H](O)[C@@H](O)C[N+]1(CC=Cc1ccccc1Cl)CC=Cc1ccccc1Cl.[Cl-] (some centres unmarked) [Compound No. 123, N,N-Bis(2-chlorocinnamyl)moranoline ammonium chloride]",3 µg/mL
5,"OC[C@@H]1[C@@H](O)[C@H](O)[C@@H](O)CN1CC=C(c1ccccc1)c1ccc(F)cc1 [Compound No. 100, N-(gamma-Phenyl-4-fluorocinnamyl)moranoline]",10 µg/mL
6,"CC(=CCCN1C[C@H](O)[C@@H](O)[C@H](O)[C@H]1CO)c1cccc(F)c1 [Compound No. 107, N-[4-(3-Fluorophenyl)-3-pentenyl]moranoline]",30 µg/mL
7,"CC(=CCCN1C[C@H](O)[C@@H](O)[C@H](O)[C@H]1CO)c1ccccc1Cl [Compound No. 112, N-[4-(2-Chlorophenyl)-3-pentenyl]moranoline]",30 µg/mL
8,"CC(=CCCN1C[C@H](O)[C@@H](O)[C@H](O)[C@H]1CO)c1ccccc1C [Compound No. 109, N-[4-(2-Methylphenyl)-3-pentenyl]moranoline]",30 µg/mL
9,"OC[C@@H]1[C@@H](O)[C@H](O)[C@@H](O)CN1CCCOc1ccc(Cl)cc1 [Compound No. 93, N-[3-(4-Chlorophenoxy)propyl]moranoline]",30 µg/mL
10,"COc1ccc(C(=CCN2C[C@H](O)[C@@H](O)[C@H](O)[C@H]2CO)c2ccccc2)cc1 [Compound No. 105, N-(gamma-Phenyl-4-methoxycinnamyl)moranoline]",100 µg/mL
11,"CCCCCCCCCCCCCCCCCC(=O)N1C[C@H](O)[C@@H](O)[C@H](O)[C@H]1CO [Compound No. 171, N-Stearoylmoranoline]",30 µg/mL
12,"CC(=CCCN1C[C@H](O)[C@@H](O)[C@H](O)[C@H]1CO)c1ccc(F)cc1 [Compound No. 108, N-[4-(4-Fluorophenyl)-3-pentenyl]moranoline]",30 µg/mL
13,"CC(=CCN1C[C@H](O)[C@@H](O)[C@H](O)[C@H]1CO)c1ccc(C)cc1 [Compound No. 104, N-(gamma-Methyl-4-methylcinnamyl)moranoline]",10 µg/mL
14,"COc1ccccc1C(C)=CCCN1C[C@H](O)[C@@H](O)[C@H](O)[C@H]1CO [Compound No. 116, N-[4-(2-Methoxyphenyl)-3-pentenyl]moranoline]",30 µg/mL
15,"CC(=CCN1C[C@H](O)[C@@H](O)[C@H](O)[C@H]1CO)c1ccc(Br)cc1 [Compound No. 101, N-(gamma-Methyl-4-bromocinnamyl)moranoline]",30 µg/mL
16,"COc1ccc(C=CCCCN2C[C@H](O)[C@@H](O)[C@H](O)[C@H]2CO)c(C)c1 [Compound No. 151, N-[5-(4-Methoxy-2-methylphenyl)-4-pentenyl]moranoline]",30 µg/mL

row,Compound,EC50 (50% CPE inhibition)
1,"CCN1C[C@H](O)[C@@H](O)[C@H](O)[C@H]1CO [B, N-ethylmoranoline, reference compound]",>100 µg/mL
2,"CCOc1cccc(C(C)=CCN2C[C@H](O)[C@@H](O)[C@H](O)[C@H]2CO)c1 [Compound No. 159, N-(gamma-Methyl-3-ethoxycinnamyl)moranoline]",30 µg/mL
3,"CCOc1ccc(C(C)=CCN2C[C@H](O)[C@@H](O)[C@H](O)[C@H]2CO)cc1 [Compound No. 160, N-[3-(4-Ethoxyphenyl)-2-butenyl]moranoline]",10 µg/mL
4,"C=C(C)C1CC=C(CN2C[C@H](O)[C@@H](O)[C@H](O)[C@H]2CO)CC1.Cc1ccc(S(=O)(=O)O)cc1 (some centres unmarked) [Compound No. 106, N-[(4-Isopropenyl-1-cyclohexenyl)methyl]moranoline tosylate]",30 µg/mL
5,"CC(=CCCN1C[C@H](O)[C@@H](O)[C@H](O)[C@H]1CO)c1cccc(Cl)c1 [Compound No. 111, N-[4-(3-Chlorophenyl)-3-pentenyl]moranoline]",30 µg/mL
6,"CC(=CCCN1C[C@H](O)[C@@H](O)[C@H](O)[C@H]1CO)c1cc(C(C)C)ccc1C [Compound No. 119, N-[4-(2-Methyl-5-isopropylphenyl)-3-pentenyl]moranoline]",3 µg/mL
7,"Cc1ccc(C=CCCN2CC(O)C(O)C(O)C2CO)cc1F (centres unmarked) [Compound No. 133, 4-[4-(3-Fluoro-4-methylphenyl)-3-butenyl]moranoline]",30 µg/mL
8,"COc1ccc(C=CCCCN2C[C@H](O)[C@@H](O)[C@H](O)[C@H]2CO)cc1Cl [Compound No. 148, N-[5-(3-Chloro-4-methoxyphenyl)-4-pentenyl]moranoline]",30 µg/mL
9,"CC(=CCCN1C[C@H](O)[C@@H](O)[C@H](O)[C@H]1CO)c1ccc(Cl)cc1 [Compound No. 110, N-[4-(4-Chlorophenyl)-3-pentenyl]moranoline]",10 µg/mL
10,"CCCCCCCCCCCCCC(=O)N1C[C@H](O)[C@@H](O)[C@H](O)[C@H]1CO [Compound No. 174, N-Myristoylmoranoline]",10 µg/mL
11,"O.OC[C@@H]1[C@@H](O)[C@H](O)[C@@H](O)CN1CC=C(c1ccccc1)c1ccc(Cl)cc1 [Compound No. 99, N-(gamma-Phenyl-4-chlorocinnamyl)moranoline monohydrate]",30 µg/mL
12,"Cc1ccc(S(=O)(=O)O)cc1.OC[C@@H]1[C@@H](O)[C@H](O)[C@@H](O)CN1CCCC=Cc1ccccc1 [Compound No. 89, N-(5-Phenyl-4-pentenyl)moranoline tosylate]",10 µg/mL
13,"COCCOc1cccc(C(C)=CCN2C[C@H](O)[C@@H](O)[C@H](O)[C@H]2CO)c1 [Compound No. 157, N-[3-(3-Methoxyethoxyphenyl)-2-butenyl]moranoline]",100 µg/mL
14,"Cc1ccc(CCCCN2C[C@H](O)[C@@H](O)[C@H](O)[C@H]2CO)cc1F [Compound No. 150, N-[4-(3-Fluoro-4-methylphenyl)butyl]moranoline]",30 µg/mL
15,"CC(=CCCN1C[C@H](O)[C@@H](O)[C@H](O)[C@H]1CO)c1ccc(N(C)C)cc1 [Compound No. 114, N-[4-(4-Dimethylaminophenyl)-3-pentenyl]moranoline]",30 µg/mL

# Test system: not listed separately
# Test: Acute toxicity test in mice
# Format: in vivo
# Details: Intraperitoneal Administration; male mice, ddY strain; observation for one week
# Protocol: Four male mice (ddY strain; six weeks age) were used for each drug tested.
# In the intraperitoneal administration, each drug was suspended in 0.5% CMC-physiological saline solution and 0.1 ml (per 10 g body weight of mouse) of the suspension was intraperitoneally given to mouse. In the case of oral administration, each drug was suspended in 0.5% CMC-physiological saline solution and 0.2 ml (per 10 g body weight of mouse) of the suspension was given orally. Observation was started soon after administration and, after observation for one week, the mice were killed by chloroform and subjected to autopsied. LD₅₀ of each drug tested was given in the following tables wherefrom it is clear that the compounds of the present invention are safe.
row,Compound,L D ₅₀
1,"CC(=CCN1C[C@H](O)[C@@H](O)[C@H](O)[C@H]1CO)c1ccc(C)cc1 [Compound No. 104, N-(gamma-Methyl-4-methylcinnamyl)moranoline]",> 300 mg/kg
2,"OC[C@@H]1[C@@H](O)[C@H](O)[C@@H](O)CN1CCCCc1ccc(Oc2ccccc2)cc1 [Compound No. 205, N-[4-(4-Phenoxyphenyl)butyl]moranoline]",> 300 mg/kg

# Same assay, conditions: Oral Administration; male mice, ddY strain; observation for one week
row,Compound,L D ₅₀
1,"CC(=CCN1C[C@H](O)[C@@H](O)[C@H](O)[C@H]1CO)c1ccc(C)cc1 [Compound No. 104, N-(gamma-Methyl-4-methylcinnamyl)moranoline]","> 5,000 mg/kg"
2,"OC[C@@H]1[C@@H](O)[C@H](O)[C@@H](O)CN1CCCCc1ccc(Oc2ccccc2)cc1 [Compound No. 205, N-[4-(4-Phenoxyphenyl)butyl]moranoline]","> 5,000 mg/kg"
